Measurements taken from US20220288057A1, “CONJOINT THERAPY FOR TREATING SEIZURE DISORDERS” (XENON PHARMACEUTICALS INC., priority 2021, published 2022).
Where “and” joins values, the source holds several entries; their conditions need not be identical. Equal entries are not always repeated. Where two headings read alike, the source gives them in different places.

Assay: Terminal plasma and brain concentrations in AC-MES studies (UHPLC-MS/MS)
Type: in vivo, mouse
Settings: for concentration at 0.5 h / Kp at 0.5 h / concentration at 30 min / Kp at 30 min: CF-1, mouse, in vivo
Protocol: Sample Collection and Preparation: Mice were anesthetized by isoflurane inhalation (according to SOP TECH-018) until they reached a surgical plane of anesthesia. Then a syringe (1 mL syringe with a 22 gauge needle) was inserted under the sternum into the heart (according to SOP TECH-031). Approximately 0.5 mL of blood was collected, deposited into a K2EDTA tube, and stored on ice. Animals were then euthanized by cervical dislocation. Brains were removed, placed into a pre-weighed vial, and snap frozen on dry ice. At the end of the sample collection, blood was centrifuged at 4000 rpm for 10 minutes at 4° C., and the plasma pipetted into a labeled tube. All samples were stored in a −80° C. freezer until the time of bioanalysis.
Plasma Samples: Extraction of plasma samples was carried out by protein precipitation using acetonitrile. Diluted plasma samples (50 μL) were mixed with 50 μL of internal standard (IS) solution in 1:1 acetonitrile:water (v:v) followed by addition of 200 μL of acetonitrile. Samples were vortexed for 30 seconds, centrifuged at 13,000 rpm for 20 minutes, decanted into a 96-well plate and further centrifuged at 4000 rpm for 20 minutes. The samples were analyzed by ultra-high performance liquid chromatography electrospray ionization tandem mass spectrometry (UHPLC-ESI-MS/MS) as described in the bioanalysis procedure below.
Brain Samples: Prior to extraction, pre-weighed whole brains were homogenized in 1:1 acetonitrile:water (v:v) (2 mL per mouse brain) using an IKA T18 Ultra-Turrax Homogenizer at the setting of 4 for approximately 1 minute. The homogenate was centrifuged at 13,000 rpm for 20 minutes and 50 μL of the supernatant were treated exactly as described in above for plasma samples.
Bioanalysis Procedures: All samples, including plasma and brain homogenate extracts (including calibration standards and quality control (QC) samples prepared in K2EDTA mouse plasma), were extracted by protein precipitation. To each 50 μL aliquot of sample, 50 μL of IS solution (2500 ng/mL of Lacosamide in water:acetonitrile (1:1)) and 50 μL of 6% (v:v) phosphoric acid in water were added, then 200 μL acetonitrile was added. The samples in 1.7 mL tubes were vortex-mixed then centrifuged for 20 minutes at 13,000 rpm. Fifty microliters of the supernatant was mixed with 150 μL of water:acetonitrile (1:1) in a 96 well plate, which was centrifuged post-mixing for 20 minutes at 4000 rpm. The samples were then ready for UHPLC-MS/MS analysis.
Samples were analyzed for Compound A by a research-grade UHPLC-MS/MS method using the conditions listed below.
Samples were analyzed for Lacosamide by a research-grade UHPLC-MS/MS method using the conditions listed below.
At least three QC samples, one at each concentration, had to show back-calculated values within ±20% of their nominal concentrations for the whole sample batch to be valid.
The Blinding and Randomization, Clinical Observations, AC-MES Assay, Sample Collection and Preparation, Plasma and Brain Samples Analysis, and Bioanalysis Procedures in Example 4 were identical to those used in Example 2.
Sample concentration determination and Data Processing and Analysis in Example 4 was identical to Example 2.

[1] = Study 2C, analyte Compound A, 3 mg/kg PO 0.5 h + Lacosamide 10 mg/kg PO 2 h
[2] = Study 4F, Compound A 2 mg/kg PO (0.5 h) in combination with Cenobamate 5 mg/kg PO (2 h)
[3] = Study 4G, Compound A 0.5 mg/kg PO (0.5 h) in combination with Cenobamate 5 mg/kg PO (2 h)
[4] = Study 4G, Compound A 1 mg/kg PO (0.5 h) in combination with Cenobamate 5 mg/kg PO (2 h)

Cc1cc(N2CCc3cc(F)ccc3C2)cc(C)c1NC(=O)CC(C)(C)C [Compound A, N-[4-(6-fluoro-3,4-dihydro-1H-isoquinolin-2-yl)-2,6-dimethylphenyl]-3,3-dimethylbutanamide]
concentration at 0.5 h (2 mg/kg, Study 4F, Compound A 2 mg/kg PO alone, 0.5 h pre-treatment, CF-1 mice, read-out: Mean Brain): 250 nM | concentration at 0.5 h (2 mg/kg, Study 4F, Compound A 2 mg/kg PO alone, 0.5 h pre-treatment, CF-1 mice, read-out: Mean Plasma): 110 nM | concentration at 0.5 h (Study 2C, analyte Compound A, 3 mg/kg PO 0.5 h + Lacosamide 10 mg/kg PO 2 h, read-out: Mean Plasma): 279 nM | concentration at 0.5 h (Study 4F, analyte Compound A, 2 mg/kg in combination with Cenobamate 5 mg/kg, read-out: mean plasma concentration): 290 nM | concentration at 0.5 h (Study 4G, analyte Compound A, 0.5 mg/kg in combination with Cenobamate 5 mg/kg, read-out: mean total plasma concentration): 30 nM | concentration at 0.5 h (Study 4G, analyte Compound A, 1 mg/kg in combination with Cenobamate 5 mg/kg, read-out: mean total plasma concentration): 110 nM | concentration at 0.5 h (po, 2 mg/kg, Study 4F, Compound A 2 mg/kg PO, 0.5 h, alone, read-out: mean plasma concentration): 110 nM | Kp at 0.5 h (po, 2 mg/kg, Study 4F, Compound A 2 mg/kg PO alone, read-out: B/P Ratio (brain to plasma ratio)): 2.32 | concentration at 2 h (Study 2A, Compound A 1 mg/kg PO, 0.5 h, 1 mg/kg, read-out: Mean Plasma): 80 nM | concentration at 2 h (Study 2A, Compound A 5 mg/kg PO, 0.5 h, 5 mg/kg, read-out: Mean Plasma): 280 nM | concentration at 2 h (Study 2A, Compound A 10 mg/kg PO, 0.5 h, 10 mg/kg, read-out: Mean Plasma): 370 nM | concentration at 2 h (Study 2B, Compound A 10 mg/kg PO, 0.5 h, 10 mg/kg, read-out: Mean Plasma): 550 nM | concentration at 2 h (Study 2C, Compound A 3 mg/kg PO, 0.5 h, alone, 3 mg/kg, read-out: Mean Plasma): 280 nM and 283 nM | B/P Ratio [1]: 1.95 + | Mean Brain [1]: 0.54 + μM | Mean Plasma [1]: 0.28 + μM | concentration at 2 h (Study 4B, Compound A 5 mg/kg PO, 0.5 h, 5 mg/kg, read-out: mean plasma concentration): 470 nM | Mean Brain, Compound A [2]: 0.67 µM | Mean Plasma, Compound A [2]: 0.29 µM | B/P Ratio, Compound A (Study 4F, Compound A 2 mg/kg PO in combination with Cenobamate 5 mg/kg PO): 2.34 | Mean Brain, Compound A [3]: 0.09 µM | Mean Plasma, Compound A [3]: 0.03 µM | B/P Ratio, Compound A (Study 4G, Compound A 0.5 mg/kg PO in combination with Cenobamate 5 mg/kg PO): 3.22 | Mean Brain, Compound A [4]: 0.30 µM | Mean Plasma, Compound A [4]: 0.11 µM | B/P Ratio, Compound A (Study 4G, Compound A 1 mg/kg PO in combination with Cenobamate 5 mg/kg PO): 2.76 | concentration at 30 min (male, 1 mg/kg, Study 4A, Compound A 1 mg/kg single oral dose, 30 min pre-treatment, CF-1 mice, read-out: Brain): 150 nM | concentration at 30 min (male, 1 mg/kg, Study 4A, Compound A 1 mg/kg single oral dose, 30 min pre-treatment, CF-1 mice, read-out: Plasma): 80 nM | concentration at 30 min (male, 5 mg/kg, Study 4A, Compound A 5 mg/kg single oral dose, 30 min pre-treatment, CF-1 mice, read-out: Brain): 400 nM | concentration at 30 min (male, 5 mg/kg, Study 4A, Compound A 5 mg/kg single oral dose, 30 min pre-treatment, CF-1 mice, read-out: Plasma): 280 nM | concentration at 30 min (male, 10 mg/kg, Study 4A, Compound A 10 mg/kg single oral dose, 30 min pre-treatment, CF-1 mice, read-out: Brain): 500 nM | concentration at 30 min (male, 10 mg/kg, Study 4A, Compound A 10 mg/kg single oral dose, 30 min pre-treatment, CF-1 mice, read-out: Plasma): 370 nM | Kp at 0.5 h (male, po, 1 mg/kg, Study 2A, Compound A 1 mg/kg PO, 0.5 h, read-out: B/P Ratio): 1.85 | concentration at 0.5 h (male, po, 1 mg/kg, Study 2A, Compound A 1 mg/kg PO, 0.5 h, read-out: Mean Brain): 150 nM | concentration at 0.5 h (male, po, 1 mg/kg, Study 2A, Compound A 1 mg/kg PO, 0.5 h, read-out: Mean Plasma): 81.5 nM | concentration at 0.5 h (male, po, 1 mg/kg, Study 4A, Compound A 1 mg/kg PO, 0.5 h, read-out: mean plasma concentration): 80 nM | Kp at 30 min (male, po, 1 mg/kg, Study 4A, Compound A 1 mg/kg single oral dose, read-out: B/P Ratio (brain to plasma ratio)): 1.85 | Kp at 0.5 h (male, po, 3 mg/kg, Study 2C, Compound A 3 mg/kg PO, 0.5 h, alone, read-out: B/P Ratio): 1.79 | concentration at 0.5 h (male, po, 3 mg/kg, Study 2C, Compound A 3 mg/kg PO, 0.5 h, alone, read-out: Mean Brain): 510 nM | concentration at 0.5 h (male, po, 3 mg/kg, Study 2C, Compound A 3 mg/kg PO, 0.5 h, alone, read-out: Mean Plasma): 284 nM | concentration at 0.5 h (male, po, 3 mg/kg, Study 4C, Compound A 3 mg/kg PO, 0.5 h, read-out: plasma concentration): 280 nM | concentration at 30 min (male, po, 3 mg/kg, Study 4C, Compound A 3 mg/kg single oral dose, CF-1 mice, read-out: Mean Brain): 510 nM | concentration at 30 min (male, po, 3 mg/kg, Study 4C, Compound A 3 mg/kg single oral dose, CF-1 mice, read-out: Mean Plasma): 280 nM | Kp at 30 min (male, po, 3 mg/kg, Study 4C, Compound A 3 mg/kg single oral dose, read-out: B/P Ratio (brain to plasma ratio)): 1.79 | Kp at 0.5 h (male, po, 5 mg/kg, Study 2A, Compound A 5 mg/kg PO, 0.5 h, read-out: B/P Ratio): 1.45 | concentration at 0.5 h (male, po, 5 mg/kg, Study 2A, Compound A 5 mg/kg PO, 0.5 h, read-out: Mean Brain): 400 nM | concentration at 0.5 h (male, po, 5 mg/kg, Study 2A, Compound A 5 mg/kg PO, 0.5 h, read-out: Mean Plasma): 276 nM
